{"source": "patent US6866861B1", "about": "“Method and composition for enhancing milk component concentrations” (Land O'Lakes, Inc., priority 1999, dated 2005)", "key": {"cows [1]": {"tested_on": "cows", "assay": "Abomasal infusion of sorbitol in cows, milk component concentrations (Example 2)", "type": "in vivo, cow", "details": "for Ash / Fat / Lactose / Total Solids / True Protein: 100 g/cow/day abomasal, average of 3 cows", "method": "To determine the weight percent total solids, wet basis, in a sample, the actual weight of total solids is determined by analyzing the sample in accordance with Method #925.23 (33.2.09) of Official Methods of Analysis, Association of Official Analytical Chemists (AOAC) (16th Ed., 1995). The weight percent total solids, wet basis, is then calculated by dividing the actual weight of total solids by the actual weight of the sample. The weight percent of true protein, wet basis, for a particular sample is calculated after first determining the wet basis weight percent of total Kjeldahl nitrogen and the wet basis weight percent of non-protein nitrogen in the sample. The wet basis weight percent of total Kjeldahl nitrogen in the sample is determined using the method referenced above. The wet basis weight percent of non-protein nitrogen (NPN) in the sample is determined in accordance with Method #991.21 (33.2.12) of Official Methods of Analysis, Association of Official Analytical Chemists (AOAC) (16th Ed., 1995). The weight percent of true protein, wet basis, in the sample is then determined by subtracting the wet basis weight percent of non-protein nitrogen in the sample from the wet basis weight percent of total Kjeldahl nitrogen in the sample. To determine the weight percent lactose, wet basis, in a liquid sample, the weight of the liquid sample is first determined. The actual weight of lactose in the liquid sample may then be determined using analysis kit number 176-303, that is available from Boehringer-Mannheim of Indianapolis, Ind. in accordance with the procedural instructions included with analysis kit number 176-303. The weight percent lactose, wet basis, in the liquid sample is then calculated by dividing the actual weight of lactose in the liquid sample by the actual weight of the liquid sample. To determine the weight percent fat, wet basis, in a sample, the actual weight of fat in the sample is determined in accordance with Method #974.09 (33.7.18) of Official Methods of Analysis, Association of Official Analytical Chemists (AOAC) (16th Ed., 1995). The weight percent fat, wet basis, is then calculated by dividing the actual weight of fat in the sample by the actual weight of the sample. In this example, sorbitol was abomasally infused into three different cows at a rate of 100 grams of sorbitol per cow per day during a 14 day test period. The sorbitol rations were mixed with water to facilitate infusion. The rations provided to the cows during the period extending from day 0, prior to abomasal infusion of sorbitol, through day 14 of the test period were the same. The only difference in feeding of the cows between day 0 and days 1-14 of the test period were that during days 1-14 the cows were abomasally infused with the dosage of 100 grams of sorbitol per cow per day. Milk from the three cows was collected and analyzed prior to infusion (on day 0) and also was collected and analyzed on the third, seventh and fourteenth day of the test period. The results presented in Table 2 below for each milk component for each particular day are averages for the milk collected from the three different cows. The net change for the different milk components presented in Table 2 was calculated by averaging the results of days 3, 7 and 14 for a particular milk component and subtracting the results presented for day 0 for the particular milk component."}, "cows [2]": {"tested_on": "cows", "assay": "Abomasal infusion of glycerol on an on-off-on schedule, total solids in milk (Example 6, FIG. 3)", "type": "in vivo", "details": "150 g/cow/day abomasal weeks 1-3 and 7-9, water weeks 4-6; average of two cows", "method": "FIG. 3 is a graph of the concentration of total solids in milk versus time when abomasally infusing glycerol into cattle in accordance with the method of the present invention. To determine the weight percent total solids, wet basis, in a sample, the actual weight of total solids is determined by analyzing the sample in accordance with Method #925.23 (33.2.09) of Official Methods of Analysis, Association of Official Analytical Chemists (AOAC) (16th Ed., 1995). The weight percent total solids, wet basis, is then calculated by dividing the actual weight of total solids by the actual weight of the sample. In Example 6, two cows were abomasally infused at the rate of 150 grams per cow per day of glycerol on an on-off-on schedule to determine whether there were any benefits to intermittently providing glycerol to the abomasum of the cattle. For each cow, glycerol was abomasally infused during weeks 1-3 and weeks 7-9, while water, and not glycerol, was abomasally infused into each cow during weeks 4-6. The results of this test are graphically depicted in FIG. 3 as the concentration, expressed as weight percent, of total solids in the milk produced by the cattle during the test period."}, "[3]": {"details": "milk, average of days 3, 7, 14 minus day 0"}}}
{"compound": "OC[C@@H](O)[C@@H](O)[C@H](O)[C@@H](O)CO", "note": "[sorbitol]", "values": [{"measurement": "weight percent of fat, true protein, and total solids in the milk (conclusion in words)", "setting": "cows [1]; abomasal infusion, 14 day test period", "value": "net increase"}, {"measurement": "Ash", "setting": "cows [1]; milk, Day 3", "value": 0.73, "unit": "Wt. %"}, {"measurement": "Fat", "setting": "cows [1]; milk, Day 3", "value": 4.59, "unit": "Wt %"}, {"measurement": "Lactose", "setting": "cows [1]; milk, Day 3", "value": 4.62, "unit": "Wt. %"}, {"measurement": "Total Solids", "setting": "cows [1]; milk, Day 3", "value": 13.00, "unit": "Wt. %"}, {"measurement": "True Protein", "setting": "cows [1]; milk, Day 3", "value": 3.06, "unit": "Wt. %"}, {"measurement": "Ash", "setting": "cows [1]; milk, Day 7", "value": 0.73, "unit": "Wt. %"}, {"measurement": "Fat", "setting": "cows [1]; milk, Day 7", "value": 3.78, "unit": "Wt %"}, {"measurement": "Lactose", "setting": "cows [1]; milk, Day 7", "value": 4.87, "unit": "Wt. %"}, {"measurement": "Total Solids", "setting": "cows [1]; milk, Day 7", "value": 12.40, "unit": "Wt. %"}, {"measurement": "True Protein", "setting": "cows [1]; milk, Day 7", "value": 3.01, "unit": "Wt. %"}, {"measurement": "Ash", "setting": "cows [1]; milk, Day 14", "value": 0.71, "unit": "Wt. %"}, {"measurement": "Fat", "setting": "cows [1]; milk, Day 14", "value": 4.33, "unit": "Wt %"}, {"measurement": "Lactose", "setting": "cows [1]; milk, Day 14", "value": 4.75, "unit": "Wt. %"}, {"measurement": "Total Solids", "setting": "cows [1]; milk, Day 14", "value": 12.88, "unit": "Wt. %"}, {"measurement": "True Protein", "setting": "cows [1]; milk, Day 14", "value": 3.09, "unit": "Wt. %"}, {"measurement": "Ash, Net Change", "setting": "cows [1]; [3]", "value": "no net change"}, {"measurement": "Fat, Net Change", "setting": "cows [1]; [3]", "value": "+0.67 Wt %"}, {"measurement": "Lactose, Net Change", "setting": "cows [1]; [3]", "value": "−0.13", "unit": "Wt. %"}, {"measurement": "Total Solids, Net Change", "setting": "cows [1]; [3]", "value": "+0.63 Wt. %"}, {"measurement": "True Protein, Net Change", "setting": "cows [1]; [3]", "value": "+0.08 Wt. %"}]}
{"compound": "OCC(O)CO", "note": "[glycerol]", "values": [{"measurement": "weight percent of total solids in the milk (FIG. 3, in words)", "setting": "cows [2]", "value": "increased"}]}
